In US11439618B2, “Compositions and methods for lowering triglycerides” (Amarin Pharmaceuticals Ireland Limited, priority 2009, dated 2022):

Assay: Essential fatty acid (EFA) parameters in plasma and RBC, gas chromatography of fatty acid methyl esters
Format: in vivo, human
Method: Blood samples (10 mL) were collected at Visit 1 (screening) and at Visits 4, 5 and 6. Analysis was performed by MSR Lipid Analysis, Scottish Crop Research Institute, Dundee, UK. The screening sample acted as baseline for the EFA measurements. Lipid was extracted from plasma, serum and RBC suspensions and converted into fatty acid methyl esters which were analyzed by gas chromatography to give fatty acid profiles as micrograms fatty acid per gram of sample (μgFA/g) and normalized area percent.
RBC and plasma EFA data were collected at baseline, Day 14, 28 and 42 and summarized by visit for each treatment group. Change from baseline and percent change from baseline were also summarized. ANCOVA comparison of ethyl-EPA dose groups and ethyl-EPA versus placebo was performed.
Notable changes for these parameters occurred in the ethyl-EPA treatment groups at Days 14, 28 and 42 compared to placebo.

SMILES: CC/C=C\C/C=C\C/C=C\C/C=C\C/C=C\CCCC(=O)OCC [Ethyl-EPA, all-cis eicosa-5,8,11,14,17-pentaenoic acid ethyl ester]
- AA Mean at Baseline (RBC, 1 g daily group, Baseline): 171.2 µg/g
- DGLA Mean at Baseline (RBC, 1 g daily group, Baseline): 23.0 µg/g
- DHA Mean at Baseline (RBC, 1 g daily group, Baseline): 66.5 µg/g
- DPAn-3 Mean at Baseline (RBC, 1 g daily group, Baseline): 34.1 µg/g
- EPA Mean at Baseline (RBC, 1 g daily group, Baseline): 19.8 µg/g
- EPA/AA Mean (SD) at Baseline (RBC, 1 g daily group, Baseline): 0.1 (0.07)
- AA Mean change from Baseline (RBC, 1 g daily, Day 14): -8.1 µg/g
- DGLA Mean change from Baseline (RBC, 1 g daily, Day 14): -2.7 µg/g
- DHA Mean change from Baseline (RBC, 1 g daily, Day 14): -4.6 µg/g
- DPAn-3 Mean change from Baseline (RBC, 1 g daily, Day 14): 0.9 µg/g
- EPA Mean change from Baseline (RBC, 1 g daily, Day 14): 12.3 µg/g
- EPA/AA Mean (SD) change from Baseline (RBC, 1 g daily, Day 14): 0.1 (0.04)
- AA Mean change from Baseline (RBC, 1 g daily, Day 28): -17.0 µg/g
- DGLA Mean change from Baseline (RBC, 1 g daily, Day 28): -3.8 µg/g
- DHA Mean change from Baseline (RBC, 1 g daily, Day 28): -6.4 µg/g
- DPAn-3 Mean change from Baseline (RBC, 1 g daily, Day 28): 3.3 µg/g
- EPA Mean change from Baseline (RBC, 1 g daily, Day 28): 14.5 µg/g
- EPA/AA Mean (SD) change from Baseline (RBC, 1 g daily, Day 28): 0.1 (0.05)
- AA Mean change from Baseline (RBC, 1 g daily, Day 42): -14.2 µg/g
- DGLA Mean change from Baseline (RBC, 1 g daily, Day 42): -3.5 µg/g
- DHA Mean change from Baseline (RBC, 1 g daily, Day 42): -7.0 µg/g
- DPAn-3 Mean change from Baseline (RBC, 1 g daily, Day 42): 6.5 µg/g
- EPA Mean change from Baseline (RBC, 1 g daily, Day 42): 17.6 µg/g
- EPA/AA Mean (SD) change from Baseline (RBC, 1 g daily, Day 42): 0.1 (0.06)
- AA LS Mean, 1 or 2 g versus 4 g (RBC, 1 g versus 4 g): 8.4 µg/g
- DGLA LS Mean, 1 or 2 g versus 4 g (RBC, 1 g versus 4 g): 1.5 µg/g
- DHA LS Mean, 1 or 2 g versus 4 g (RBC, 1 g versus 4 g): 1.0 µg/g
- DPAn-3 LS Mean, 1 or 2 g versus 4 g (RBC, 1 g versus 4 g): -6.2 µg/g
- EPA LS Mean, 1 or 2 g versus 4 g (RBC, 1 g versus 4 g): -24.4 µg/g
- EPA/AA LS Mean, 1 or 2 g versus 4 g (RBC, 1 g versus 4 g): −0.18
- AA Mean at Baseline (RBC, 2 g daily group, Baseline): 172.8 µg/g
- DGLA Mean at Baseline (RBC, 2 g daily group, Baseline): 23.0 µg/g
- DHA Mean at Baseline (RBC, 2 g daily group, Baseline): 64.8 µg/g
- DPAn-3 Mean at Baseline (RBC, 2 g daily group, Baseline): 33.2 µg/g
- EPA Mean at Baseline (RBC, 2 g daily group, Baseline): 18.9 µg/g
- EPA/AA Mean (SD) at Baseline (RBC, 2 g daily group, Baseline): 0.1 (0.06)
- AA Mean change from Baseline (RBC, 2 g daily, Day 14): -3.1 µg/g
- DGLA Mean change from Baseline (RBC, 2 g daily, Day 14): -2.6 µg/g
- DHA Mean change from Baseline (RBC, 2 g daily, Day 14): -2.0 µg/g
- DPAn-3 Mean change from Baseline (RBC, 2 g daily, Day 14): 5.6 µg/g
- EPA Mean change from Baseline (RBC, 2 g daily, Day 14): 26.9 µg/g
- EPA/AA Mean (SD) change from Baseline (RBC, 2 g daily, Day 14): 0.2 (0.04)
- AA Mean change from Baseline (RBC, 2 g daily, Day 28): -14.1 µg/g
- DGLA Mean change from Baseline (RBC, 2 g daily, Day 28): -4.5 µg/g
- DHA Mean change from Baseline (RBC, 2 g daily, Day 28): -6.2 µg/g
- DPAn-3 Mean change from Baseline (RBC, 2 g daily, Day 28): 9.4 µg/g
- EPA Mean change from Baseline (RBC, 2 g daily, Day 28): 32.9 µg/g
- EPA/AA Mean (SD) change from Baseline (RBC, 2 g daily, Day 28): 0.02 (0.06)
- AA Mean change from Baseline (RBC, 2 g daily, Day 42): -18.8 µg/g
- DGLA Mean change from Baseline (RBC, 2 g daily, Day 42): -5.3 µg/g
- DHA Mean change from Baseline (RBC, 2 g daily, Day 42): -6.3 µg/g
- DPAn-3 Mean change from Baseline (RBC, 2 g daily, Day 42): 13.2 µg/g
- EPA Mean change from Baseline (RBC, 2 g daily, Day 42): 38.3 µg/g
- EPA/AA Mean (SD) change from Baseline (RBC, 2 g daily, Day 42): 0.3 (0.06)
- AA LS Mean, 1 or 2 g versus 4 g (RBC, 2 g versus 4 g): 9.8 µg/g
- DGLA LS Mean, 1 or 2 g versus 4 g (RBC, 2 g versus 4 g): 1.5 µg/g
- DHA LS Mean, 1 or 2 g versus 4 g (RBC, 2 g versus 4 g): 1.0 µg/g
- DPAn-3 LS Mean, 1 or 2 g versus 4 g (RBC, 2 g versus 4 g): -2.5 µg/g
- EPA LS Mean, 1 or 2 g versus 4 g (RBC, 2 g versus 4 g): -11.8 µg/g
- EPA/AA LS Mean, 1 or 2 g versus 4 g (RBC, 2 g versus 4 g): −0.11
- AA Mean (SD) at Baseline (RBC, 4 g daily group, Baseline): 171.0 (25.17) μg/g
- DGLA Mean at Baseline (RBC, 4 g daily group, Baseline): 24.0 µg/g
- DHA Mean at Baseline (RBC, 4 g daily group, Baseline): 68.3 µg/g
- DPAn-3 Mean at Baseline (RBC, 4 g daily group, Baseline): 34.5 µg/g
- EPA Mean at Baseline (RBC, 4 g daily group, Baseline): 19.8 µg/g
- EPA/AA Mean (SD) at Baseline (RBC, 4 g daily group, Baseline): 0.1 (0.04)
- AA Mean (SD) change from Baseline (RBC, 4 g daily, Day 14): −15.7 (26.76) μg/g
- DGLA Mean change from Baseline (RBC, 4 g daily, Day 14): -5.3 µg/g
- DHA Mean change from Baseline (RBC, 4 g daily, Day 14): -6.9 µg/g
- DPAn-3 Mean change from Baseline (RBC, 4 g daily, Day 14): 5.4 µg/g
- EPA Mean change from Baseline (RBC, 4 g daily, Day 14): 39.5 µg/g
- EPA/AA Mean (SD) change from Baseline (RBC, 4 g daily, Day 14): 0.3 (0.07)
- AA Mean (SD) change from Baseline (RBC, 4 g daily, Day 28): −22.8 (29.56) μg/g
- DGLA Mean change from Baseline (RBC, 4 g daily, Day 28): -7.1 µg/g
- DHA Mean change from Baseline (RBC, 4 g daily, Day 28): -8.7 µg/g
- DPAn-3 Mean change from Baseline (RBC, 4 g daily, Day 28): 12.4 µg/g
- EPA Mean change from Baseline (RBC, 4 g daily, Day 28): 50.2 µg/g
- EPA/AA Mean (SD) change from Baseline (RBC, 4 g daily, Day 28): 0.4 (0.11)
- AA Mean (SD) change from Baseline (RBC, 4 g daily, Day 42): −34.4 (31.44) μg/g
- DGLA Mean change from Baseline (RBC, 4 g daily, Day 42): -8.0 µg/g
- DHA Mean change from Baseline (RBC, 4 g daily, Day 42): -13.8 µg/g
- DPAn-3 Mean change from Baseline (RBC, 4 g daily, Day 42): 16.2 µg/g
- EPA Mean change from Baseline (RBC, 4 g daily, Day 42): 52.5 µg/g
- EPA/AA Mean (SD) change from Baseline (RBC, 4 g daily, Day 42): 0.4 (0.14)
- Difference in EPA, AA (RBC only), DPAn-3, DGLA (1 g only for plasma) and EPA/AA ratio levels, 4 g compared to 1 g and 2 g (plasma and RBC, LS means, p≤0.05): significantly (LS means, p≤0.05) different
